These results are taken from BindingDB's records for doi:10.1021/jm00095a009 (Dupont Pharmaceuticals, 1992).

The target in the test is Phospholipase A2 (Crotalus adamanteus). In words: Inhibitory activity against phospholipase A2 of Croatalus adamanteus.

In general, IC50 refers to the concentration that gives 50% inhibition. Low readings indicate inhibition by little substance, high ones a need for much substance.

In turn, `OC(Cn1ccnc1)(c1ccc(F)cc1)c1ccc(-c2ccncc2)cc1` (stereo not drawn) yielded an IC50 of over 1000 µM.

The molecule `Cc1ccc(C(O)(Cn2ccnc2)c2ccc(-c3ccncc3)cc2)cc1` (stereo not drawn) had a half-inhibitory concentration (IC50) of over 1000 µM. For the molecule `Oc1c(Cc2ccccc2)ccc2ccccc12`, the IC50 is over 1000 µM.
